# Test results from patent publication US10428083B2, “Heterocyclylmethyl-thienouracile as antagonists of the adenosine-A2B-receptor” (BAYER PHARMA AKTIENGESELLSCHAFT, priority 2015, dated 2019).
# Target: human adenosine A2b receptor (Homo sapiens (Human), UniProt P29275)
# Assay: Cellular in vitro reporter gene test for A2b receptor activity (CHO-K1, CRE-luciferase, NECA stimulation)
# Format: cell-based
# Details: not given
# Method: B-1. Cellular In Vitro Tests for Determining A2b Receptor Activity and Adenosine Receptor Selectivity
# In the case of the A2a and A2b cell lines, this is a minimal promoter having a plurality of cAMP-responsive elements (CRE). Stimulation of the Gs-coupled A2b or A2a receptors by NECA ultimately leads, via formation of cAMP, to CRE-dependent induction of luciferase expression, which is detected 3 hours after the start of the incubation with NECA using a detection solution in a suitable luminometer. For testing the antagonists, initially, in a pre-experiment, the concentration of NECA which, at the test day in question, results in half-maximum stimulation of luciferase expression (EC50 concentration) is determined. By joint incubation of this EC50 concentration of NECA with the substances to be tested, it is possible to determine their antagonistic activity.
# human adenosine A2b receptor, sequence (P29275 whole entry): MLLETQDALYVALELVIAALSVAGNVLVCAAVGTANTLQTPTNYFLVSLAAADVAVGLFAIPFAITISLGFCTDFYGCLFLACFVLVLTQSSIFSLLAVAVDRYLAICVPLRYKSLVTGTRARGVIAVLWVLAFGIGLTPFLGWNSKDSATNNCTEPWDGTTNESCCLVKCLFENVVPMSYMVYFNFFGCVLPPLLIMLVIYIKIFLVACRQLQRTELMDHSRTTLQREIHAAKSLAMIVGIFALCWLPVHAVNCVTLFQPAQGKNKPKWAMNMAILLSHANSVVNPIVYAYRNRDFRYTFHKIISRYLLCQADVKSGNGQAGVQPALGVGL
row,SMILES,IC50 [µM]
1,"COCCn1c(=O)n(C(C)C(F)(F)F)c(=O)c2c(C)c(Cn3nc[nH]c3=O)sc21 (racemic) [Example 438, 1-(2-Methoxyethyl)-5-methyl-6-[(5-oxo-4,5-dihydro-1H-1,2,4-triazol-1-yl)methyl]-3-(1,1,1-trifluoropropan-2-yl)thieno[2,3-d]pyrimidine-2,4(1H,3H)-dione]",0.15
2,"Cc1c(CN2CCNC2=NC#N)sc2c1c(=O)n(C(C)C(F)(F)F)c(=O)n2CCC(F)(F)F (racemic) [Example 451, [1-{[5-Methyl-2,4-dioxo-3-(1,1,1-trifluoropropan-2-yl)-1-(3,3,3-trifluoropropyl)-1,2,3,4-tetrahydrothieno[2,3-d]pyrimidin-6-yl]methyl}imidazolidin-2-ylidene]cyanamide]",0.01

# Same assay, conditions: recombinant CHO-K1 cell line, CRE-luciferase reporter, antagonism of EC50 concentration of NECA; in some cases means of several determinations, rounded to two significant figures; read-out: A2b receptor IC50
row,SMILES,IC50 [µM]
1,"COCCn1c(=O)c2c(C)c(CN3CCNC3=NC#N)sc2n(CC2CCO2)c1=O (racemic) [Example 364, [1-{[3-(2-Methoxyethyl)-5-methyl-1-(oxetan-2-ylmethyl)-2,4-dioxo-1,2,3,4-tetrahydrothieno[2,3-d]pyrimidin-6-yl]methyl}imidazolidin-2-ylidene]cyanamide]",0.17
2,"CCn1c(=O)c2c(C)c(CN3CCNC3=NC(=O)OC)sc2n(CC2CCCO2)c1=O (racemic) [Example 374, Methyl [1-{[3-ethyl-5-methyl-2,4-dioxo-1-(tetrahydrofuran-2-ylmethyl)-1,2,3,4-tetrahydrothieno[2,3-d]pyrimidin-6-yl]methyl}imidazolidin-2-ylidene]carbamate]",0.007
3,"COC(=O)N=C1NCCN1Cc1sc2c(c1C)c(=O)n(C(C)C)c(=O)n2CC1CCO1 (racemic) [Example 379, Methyl [1-{[3-isopropyl-5-methyl-1-(oxetan-2-ylmethyl)-2,4-dioxo-1,2,3,4-tetrahydrothieno[2,3-d]pyrimidin-6-yl]methyl}imidazolidin-2-ylidene]carbamate]",0.013
4,"COC(=O)N=C1NCCN1Cc1sc2c(c1C)c(=O)n(C(C)C)c(=O)n2CC1CCCO1 (racemic) [Example 380, Methyl [1-{[3-isopropyl-5-methyl-2,4-dioxo-1-(tetrahydrofuran-2-ylmethyl)-1,2,3,4-tetrahydrothieno[2,3-d]pyrimidin-6-yl]methyl}imidazolidin-2-ylidene]carbamate]",0.012
5,"COC(=O)N=C1NCCN1Cc1sc2c(c1C)c(=O)n(CC(F)(F)F)c(=O)n2CC1CCO1 (racemic) [Example 383, Methyl [1-{[5-methyl-1-(oxetan-2-ylmethyl)-2,4-dioxo-3-(2,2,2-trifluoroethyl)-1,2,3,4-tetrahydrothieno[2,3-d]pyrimidin-6-yl]methyl}imidazolidin-2-ylidene]carbamate]",0.015
6,"COCCn1c(=O)c2c(C)c(CN3CCNC3=NC(=O)OC)sc2n(CC2CCCO2)c1=O (racemic) [Example 390, Methyl [1-{[3-(2-methoxyethyl)-5-methyl-2,4-dioxo-1-(tetrahydrofuran-2-ylmethyl)-1,2,3,4-tetrahydrothieno[2,3-d]pyrimidin-6-yl]methyl}imidazolidin-2-ylidene]carbamate]",0.028
7,"Cc1c(CN2CCNC(=O)C2=O)sc2c1c(=O)n(C(C)C)c(=O)n2CC1CCO1 (racemic) [Example 397, 6-[(2,3-Dioxopiperazin-1-yl)methyl]-3-isopropyl-5-methyl-1-(oxetan-2-ylmethyl)thieno[2,3-d]pyrimidine-2,4(1H,3H)-dione]",0.12
8,"COCCn1c(=O)c2c(C)c(CN3CCNC(=O)C3=O)sc2n(CC2CCO2)c1=O (racemic) [Example 400, 6-[(2,3-Dioxopiperazin-1-yl)methyl]-3-(2-methoxyethyl)-5-methyl-1-(oxetan-2-ylmethyl)thieno[2,3-d]pyrimidine-2,4(1H,3H)-dione]",0.32
9,"COCCn1c(=O)n(C(C)C(F)(F)F)c(=O)c2c(C)c(CN3CCNC3=O)sc21 (racemic) [Example 410, 1-(2-Methoxyethyl)-5-methyl-6-[(2-oxoimidazolidin-1-yl)methyl]-3-(1,1,1-trifluoropropan-2-yl)thieno[2,3-d]pyrimidine-2,4(1H,3H)-dione]",0.012
10,"CCn1c(=O)c2c(C)c(Cn3nc[nH]c3=O)sc2n(CC2CCCO2)c1=O (racemic) [Example 419, 3-Ethyl-5-methyl-6-[(5-oxo-4,5-dihydro-1H-1,2,4-triazol-1-yl)methyl]-1-(tetrahydrofuran-2-ylmethyl)thieno[2,3-d]pyrimidine-2,4(1H,3H)-dione]",0.13
11,"Cc1c(Cn2nc[nH]c2=O)sc2c1c(=O)n(CC(F)(F)F)c(=O)n2CC1CCCO1 (racemic) [Example 434, 5-Methyl-6-[(5-oxo-4,5-dihydro-H-1,2,4-triazol-1-yl)methyl]-1-(tetrahydrofuran-2-ylmethyl)-3-(2,2,2-trifluoroethyl)thieno[2,3-d]pyrimidine-2,4(1H,3H)-dione]",0.082
12,"COC(C)Cn1c(=O)c2c(C)c(Cn3nc[nH]c3=O)sc2n(CCC(F)(F)F)c1=O (racemic) [Example 440, 3-(2-Methoxypropyl)-5-methyl-6-[(5-oxo-4,5-dihydro-1H-1,2,4-triazol-1-yl)methyl]-1-(3,3,3-trifluoropropyl)thieno[2,3-d]pyrimidine-2,4(1H,3H)-dione]",0.023
13,"Cc1c(CN2CCNC2=NC#N)sc2c1c(=O)n(CC(C)(C)C)c(=O)n2CC1CCCO1 (racemic) [Example 446, [1-{[3-(2,2-Dimethylpropyl)-5-methyl-2,4-dioxo-1-(tetrahydrofuran-2-ylmethyl)-1,2,3,4-tetrahydrothieno[2,3-d]pyrimidin-6-yl]methyl}imidazolidin-2-ylidene]cyanamide]",0.019

# Results, then the compound that gave them:
row,IC50 [µM],SMILES
1,0.033,"COCCn1c(=O)c2c(C)c(CN3CCNC3=NC#N)sc2n(CC2CCCO2)c1=O (racemic) [Example 367, [1-{[3-(2-Methoxyethyl)-5-methyl-2,4-dioxo-1-(tetrahydrofuran-2-ylmethyl)-1,2,3,4-tetrahydrothieno[2,3-d]pyrimidin-6-yl]methyl}imidazolidin-2-ylidene]cyanamide]"
2,0.0098,"CCn1c(=O)c2c(C)c(CN3CCNC3=NC(=O)OC)sc2n(CC2CCO2)c1=O (racemic) [Example 371, Methyl [1-{[3-ethyl-5-methyl-1-(oxetan-2-ylmethyl)-2,4-dioxo-1,2,3,4-tetrahydrothieno[2,3-d]pyrimidin-6-yl]methyl}imidazolidin-2-ylidene]carbamate]"
3,0.0098,"COC(=O)N=C1NCCN1Cc1sc2c(c1C)c(=O)n(CC(F)(F)F)c(=O)n2CC1CCCO1 (racemic) [Example 384, Methyl [1-{[5-methyl-2,4-dioxo-1-(tetrahydrofuran-2-ylmethyl)-3-(2,2,2-trifluoroethyl)-1,2,3,4-tetrahydrothieno[2,3-d]pyrimidin-6-yl]methyl}imidazolidin-2-ylidene]carbamate]"
4,0.096,"COCCn1c(=O)c2c(C)c(CN3CCNC3=NC(=O)OC)sc2n(CC2CCO2)c1=O (racemic) [Example 387, Methyl [1-{[3-(2-methoxyethyl)-5-methyl-1-(oxetan-2-ylmethyl)-2,4-dioxo-1,2,3,4-tetrahydrothieno[2,3-d]pyrimidin-6-yl]methyl}imidazolidin-2-ylidene]carbamate]"
5,0.029,"Cc1c(CN2CCNC2=O)sc2c1c(=O)n(CC(C)(C)C)c(=O)n2CC1CCCO1 (racemic) [Example 406, 3-(2,2-Dimethylpropyl)-5-methyl-6-[(2-oxoimidazolidin-1-yl)methyl]-1-(tetrahydrofuran-2-ylmethyl)thieno[2,3-d]pyrimidine-2,4(1H,3H)-dione]"
6,0.0054,"COC(C)Cn1c(=O)c2c(C)c(CN3CCNC3=O)sc2n(CCC(F)(F)F)c1=O (racemic) [Example 412, 3-(2-Methoxypropyl)-5-methyl-6-[(2-oxoimidazolidin-1-yl)methyl]-1-(3,3,3-trifluoropropyl)thieno[2,3-d]pyrimidine-2,4(1H,3H)-dione]"
7,0.079,"CCn1c(=O)c2c(C)c(C(C)N3CCNC3=O)sc2n(CCC(F)(F)F)c1=O (racemic) [Example 416, 3-Ethyl-5-methyl-6-[1-(2-oxoimidazolidin-1-yl)ethyl]-1-(3,3,3-trifluoropropyl)thieno[2,3-d]pyrimidine-2,4(1H,3H)-dione]"
8,0.088,"Cc1c(Cn2nc[nH]c2=O)sc2c1c(=O)n(C(C)C)c(=O)n2CC1CCCO1 (racemic) [Example 424, 3-Isopropyl-5-methyl-6-[(5-oxo-4,5-dihydro-1H-1,2,4-triazol-1-yl)methyl]-1-(tetrahydrofuran-2-ylmethyl)thieno[2,3-d]pyrimidine-2,4(1H,3H)-dione]"
9,0.075,"Cc1c(Cn2nc[nH]c2=O)sc2c1c(=O)n(CC(C)(C)C)c(=O)n2CC1CCCO1 (racemic) [Example 429, 3-(2,2-Dimethylpropyl)-5-methyl-6-[(5-oxo-4,5-dihydro-1H-1,2,4-triazol-1-yl)methyl]-1-(tetrahydrofuran-2-ylmethyl)thieno[2,3-d]pyrimidine-2,4(1H,3H)-dione]"
10,0.048,"Cc1c(Cn2nc[nH]c2=O)sc2c1c(=O)n(C(C)C(F)(F)F)c(=O)n2CCC(F)(F)F (racemic) [Example 437, 5-Methyl-6-[(5-oxo-4,5-dihydro-1H-1,2,4-triazol-1-yl)methyl]-3-(1,1,1-trifluoropropan-2-yl)-1-(3,3,3-trifluoropropyl)thieno[2,3-d]pyrimidine-2,4(1H,3H)-dione]"
